Laboratory results published in patent US20250019371A1, “SMALL-MOLECULAR INHIBITORS FOR THE BETA-CATENIN/ B-CELL LYMPHOMA 9 PROTEIN-PROTEIN INTERACTION” (H. LEE MOFFITT CANCER CENTER AND RESEARCH INSTITUTE, INC., priority 2021, published 2025).
Read-outs that look alike come from different tables or passages of the source.

How the values were obtained:
β-catenin/BCL9 PPI = target: T1, β-catenin/BCL9 PPI (Homo sapiens, UniProt P35222); experiment: AlphaScreen competitive inhibition assay of β-catenin/BCL9 PPI; assay type: binding; settings: for Ki: read-out: Ki; for potency relative to compound 12: AlphaScreen Ki compared with 12; for AlphaScreen inhibitory activity in words: SAR comparison
T1 construct: Full-length β-catenin (residues 1-781); host or cells: E. coli BL21 DE3
T1 sequence (P35222 1-781): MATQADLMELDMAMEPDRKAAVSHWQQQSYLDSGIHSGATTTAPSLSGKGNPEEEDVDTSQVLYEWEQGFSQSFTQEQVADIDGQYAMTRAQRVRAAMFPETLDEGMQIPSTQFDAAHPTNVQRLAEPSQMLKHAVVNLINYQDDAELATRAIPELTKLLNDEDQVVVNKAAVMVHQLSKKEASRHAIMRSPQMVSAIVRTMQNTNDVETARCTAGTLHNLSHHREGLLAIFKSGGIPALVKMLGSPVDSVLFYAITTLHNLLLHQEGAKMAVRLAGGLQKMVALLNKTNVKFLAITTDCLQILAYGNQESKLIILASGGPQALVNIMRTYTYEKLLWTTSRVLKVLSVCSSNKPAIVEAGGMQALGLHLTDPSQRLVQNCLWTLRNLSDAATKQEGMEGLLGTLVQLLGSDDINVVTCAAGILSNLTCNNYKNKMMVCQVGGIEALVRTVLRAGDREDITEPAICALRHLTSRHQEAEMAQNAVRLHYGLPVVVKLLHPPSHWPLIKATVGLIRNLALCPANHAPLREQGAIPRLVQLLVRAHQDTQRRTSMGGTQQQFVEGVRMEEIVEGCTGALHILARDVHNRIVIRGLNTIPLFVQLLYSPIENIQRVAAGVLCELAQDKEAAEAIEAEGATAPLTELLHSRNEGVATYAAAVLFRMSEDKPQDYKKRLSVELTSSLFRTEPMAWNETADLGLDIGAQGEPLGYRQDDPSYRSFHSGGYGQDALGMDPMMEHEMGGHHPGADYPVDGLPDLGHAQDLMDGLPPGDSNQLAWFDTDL
Experimental: AlphaScreen Assays of β-Catenin and BCL9 Interaction. Experiments were performed in white opaque 384-well plates from PerkinElmer (Waltham, MA), and the samples were read on a Biotek Synergy 2 plate reader (Winooski, VT) with excitation at 680 nm and emission at 570 nm. The standard AlphaScreen protocol was used with a sensitivity setting of 200. All dilutions were made in 1x assay buffer containing 25 mM Hepes (pH 7.4), 100 mM NaCl, 0.01% Triton X-100 and 0.1% BSA to minimize nonspecific interactions.
For the β-catenin/BCL9 assay, 5 nM biotinylated BCL9, and 50 nM His6-tagged 8-catenin were incubated in assay buffer for 30 min. Different concentrations of the tested inhibitor were added and incubated in 20 μL assay buffer for another 1 h. All of the assay plates were covered and gently mixed on an orbital shaker. Donor and acceptor beads were then added to the plates to a final concentration of 10 μg/mL in 25 μL assay buffer. The mixture was incubated for 1 h before detection. The IC50 value was determined by nonlinear least-square analysis of GraphPad Prism 8.0. […] All of the experiments were performed in triplicate and carried out in the presence of 1% DMSO for small-molecule inhibitors. Each compound was assayed at least by three independent experiments. The results were expressed as mean±standard deviation.

[1] = cell-based experiments, earlier work, cited from earlier work
[2] = Table 1, AlphaScreen, inhibitors 16-26
[3] = Table 1, AlphaScreen, inhibitors 16-26, Ki derived from IC50
[4] = first Table 3, AlphaScreen, inhibitors 31-35
[5] = Table 2, AlphaScreen, inhibitors 27-30 (R- and S-isomers), preliminary

`COc1cccc(S(=O)(=O)NC(=O)C(C)(C)Oc2cccc(N3CCCC(C(=O)N(Cc4ccc(-c5cccs5)cc4)C4CC4)C3)c2)c1` (stereo not drawn) [Compound 22, N-Cyclopropyl-1-(3-((1-((3-methoxyphenyl)sulfonamido)-2-methyl-1-oxopropan-2-yl)oxy)phenyl)-N-(4-(thiophen-2-yl)benzyl) piperidine-3-carboxamide] showed an IC50 (β-catenin/BCL9 PPI; [2]) of at most 10 µM and a Ki (β-catenin/BCL9 PPI; [3]) of at most 5 µM.
Compound `CC(C)(Oc1cccc(N2CCCC(C(=O)N(Cc3ccc(-c4cccs4)cc3)C3CC3)C2)c1)C(=O)NS(=O)(=O)c1cccc(C#N)c1` (stereo not drawn) [Compound 25, 1-(3-((1-((3-Cyanophenyl)sulfonamido)-2-methyl-1-oxopropan-2-yl)oxy)phenyl)-N-cyclopropyl-N-(4-(thiophen-2-yl)benzyl) piperidine-3-carboxamide] has an IC50 (β-catenin/BCL9 PPI; [2]) of at most 10 µM and a Ki (β-catenin/BCL9 PPI; [3]) of at most 10 µM.
With `CC(C)(Oc1cccc(N2CCCC(C(=O)N(Cc3ccc(-c4cccs4)cc3)C3CC3)C2)c1)C(=O)NS(C)(=O)=O` (stereo not drawn) [Compound 18, N-Cyclopropyl-1-(3-((2-methyl-1-(methylsulfonamido)-1-oxopropan-2-yl)oxy)phenyl)-N-(4-(thiophen-2-yl)benzyl) piperidine-3-carboxamide] the “potency relative to compound 12” value (β-catenin/BCL9 PPI) was “two-fold less potent than 12”, the IC50 (β-catenin/BCL9 PPI; [2]) was at most 30 µM and the Ki (β-catenin/BCL9 PPI; [3]) was at most 30 µM.
In the case of `CC(C)(Oc1cccc(N2CCC[C@H](C(=O)N(Cc3ccc(-c4cccs4)cc3)C3CC3)C2)c1)C(=O)NS(=O)(=O)C1CC1` [Compound 33], the IC50 (β-catenin/BCL9 PPI; [4]) is reported as at most 30 µM and the Ki (β-catenin/BCL9 PPI; [4]) is reported as at most 30 µM.
`COc1cccc(S(=O)(=O)NC(=O)C(C)(C)Oc2cccc(N3CCC[C@@H](C(=O)N(Cc4ccc(-c5cccs5)cc4)C4CC4)C3)c2)c1` [Compound 27, (R)—N-Cyclopropyl-1-(3-((1-((3-methoxyphenyl)sulfonamido)-2-methyl-1-oxopropan-2-yl)oxy)phenyl)-N-(4-(thiophen-2-yl)benzyl) piperidine-3-carboxamide] gave an IC50 (β-catenin/BCL9 PPI; [5]) of at most 10 µM and a Ki (β-catenin/BCL9 PPI; [5]) of at most 5 µM.
For `CC(C)(Oc1cccc(N2CCCC(C(=O)N(Cc3ccc(-c4cccs4)cc3)C3CC3)C2)c1)C(=O)NS(=O)(=O)C1CC1` (stereo not drawn) [Compound 19, 1-(3-((1-(Cyclopropanesulfonamido)-2-methyl-1-oxopropan-2-yl)oxy)phenyl)-N-cyclopropyl-N-(4-(thiophen-2-yl)benzyl) piperidine-3-carboxamide], the “AlphaScreen inhibitory activity in words” value (β-catenin/BCL9 PPI) was “improved activities”, the IC50 (β-catenin/BCL9 PPI; [2]) was at most 30 µM and the Ki (β-catenin/BCL9 PPI; [3]) was at most 30 µM.
`CC(C)(Oc1cccc(N2CCC[C@@H](C(=O)N(Cc3ccc(-c4cccs4)cc3)C3CC3)C2)c1)C(=O)NS(=O)(=O)C1CC1` [Compound 32] gave an IC50 (β-catenin/BCL9 PPI; [4]) of at most 30 µM and a Ki (β-catenin/BCL9 PPI; [4]) of at most 30 µM.
Compound `COc1ccc(S(=O)(=O)NC(=O)C(C)(C)Oc2cccc(N3CCC[C@H](C(=O)N(Cc4ccc(-c5cccs5)cc4)C4CC4)C3)c2)cc1` [Compound 34] has an IC50 (β-catenin/BCL9 PPI; [4]) of at most 30 µM and a Ki (β-catenin/BCL9 PPI; [4]) of at most 30 µM.
In the case of `COC(=O)C(C)(C)Oc1cccc(N2CCCC(C(=O)N(Cc3ccc(-c4cccs4)cc3)C3CC3)C2)c1` (stereo not drawn) [Compound 16, Methyl 2-(3-(3-(cyclopropyl(4-(thiophen-2-yl)benzyl)carbamoyl)piperidin-1-yl)phenoxy)-2-methylpropanoate], the “AlphaScreen inhibitory activity in words” value (β-catenin/BCL9 PPI) is reported as “significant potency loss”, the IC50 (β-catenin/BCL9 PPI; [2]) is reported as over 100 µM and the Ki (β-catenin/BCL9 PPI; [3]) is reported as over 90 µM.
In the case of `CC(C)c1ccc(COC(=O)N2CCC[C@@H](c3cccc(OC(C)(C)C(=O)O)c3)C2)cc1` [CP868388], the cellular activity [1] is given as “inactive in cell-based experiments” and the cellular activity ([1]; listed as 1) is given as “did not show any cellular activity”.
In the case of `CC(C)(Oc1cccc(N2CCC[C@@H](C(=O)N(Cc3ccc(-c4cccs4)cc3)C3CC3)C2)c1)C(=O)NS(=O)(=O)c1ccc(C#N)cc1` [Compound 29, (R)-1-(3-((1-((4-Cyanophenyl)sulfonamido)-2-methyl-1-oxopropan-2-yl)oxy)phenyl)-N-cyclopropyl-N-(4-(thiophen-2-yl)benzyl) piperidine-3-carboxamide], the IC50 (β-catenin/BCL9 PPI; [5]) is reported as at most 5 µM and the Ki (β-catenin/BCL9 PPI; [5]) is reported as at most 5 µM.
For `CC(C)(Oc1cccc(N2CCCC(C(=O)N(Cc3ccc(-c4cccs4)cc3)C3CC3)C2)c1)C(=O)NS(=O)(=O)c1ccccc1` (stereo not drawn) [Compound 21, N-Cyclopropyl-1-(3-((2-methyl-1-oxo-1-(phenylsulfonamido)propan-2-yl)oxy)phenyl)-N-(4-(thiophen-2-yl)benzyl) piperidine-3-carboxamide], the “potency relative to compound 12” value (β-catenin/BCL9 PPI) was “two-fold more potent than 12”, the “AlphaScreen inhibitory activity in words” value (β-catenin/BCL9 PPI) was “improved activities” and the IC50 (β-catenin/BCL9 PPI; [2]) was at most 10 µM. The Ki (β-catenin/BCL9 PPI; [3]) was at most 10 µM.
With `CC(C)S(=O)(=O)NC(=O)C(C)(C)Oc1cccc(N2CCCC(C(=O)N(Cc3ccc(-c4cccs4)cc3)C3CC3)C2)c1` (stereo not drawn) [Compound 20, N-Cyclopropyl-1-(3-((2-methyl-1-((1-methylethyl)sulfonamido)-1-oxopropan-2-yl)oxy)phenyl)-N-(4-(thiophen-2-yl)benzyl) piperidine-3-carboxamide] the “AlphaScreen inhibitory activity in words” value (β-catenin/BCL9 PPI) was “improved activities”, the IC50 (β-catenin/BCL9 PPI; [2]) was at most 30 µM and the Ki (β-catenin/BCL9 PPI; [3]) was at most 30 µM.
`CC(C)(Oc1cccc(N2CCCC(C(=O)N(Cc3ccc(-c4cccs4)cc3)C3CC3)C2)c1)C(=O)NS(=O)(=O)C(F)(F)F` (stereo not drawn) [Compound 31] showed an IC50 (β-catenin/BCL9 PPI; [4]) of about 200 µM and a Ki (β-catenin/BCL9 PPI; [4]) of about 168 µM.
For `CC(C)(Oc1cccc(N2CCC[C@H](C(=O)N(Cc3ccc(-c4cccs4)cc3)C3CC3)C2)c1)C(=O)NS(=O)(=O)c1cccc(C#N)c1` [Compound 35], the IC50 (β-catenin/BCL9 PPI; [4]) was at most 10 µM and the Ki (β-catenin/BCL9 PPI; [4]) was at most 10 µM.
For `CC(C)(Oc1cccc(N2CCCC(C(=O)N(Cc3ccc(-c4cccs4)cc3)C3CC3)C2)c1)C(=O)NS(=O)(=O)c1ccc(C#N)cc1` (stereo not drawn) [Compound 26, 1-(3-((1-((4-Cyanophenyl)sulfonamido)-2-methyl-1-oxopropan-2-yl)oxy)phenyl)-N-cyclopropyl-N-(4-(thiophen-2-yl)benzyl) piperidine-3-carboxamide], the IC50 (β-catenin/BCL9 PPI; [2]) was at most 5 µM and the Ki (β-catenin/BCL9 PPI; [3]) was at most 5 µM.
Work on `COc1ccc(S(=O)(=O)NC(=O)C(C)(C)Oc2cccc(N3CCCC(C(=O)N(Cc4ccc(-c5cccs5)cc4)C4CC4)C3)c2)cc1` (stereo not drawn) [Compound 23, N-Cyclopropyl-1-(3-((1-((4-methoxyphenyl)sulfonamido)-2-methyl-1-oxopropan-2-yl)oxy)phenyl)-N-(4-(thiophen-2-yl)benzyl) piperidine-3-carboxamide] yielded an IC50 (β-catenin/BCL9 PPI; [2]) of at most 10 µM and a Ki (β-catenin/BCL9 PPI; [3]) of at most 5 µM.
With `CC(C)(Oc1cccc(N2CCCC(C(=O)N(Cc3ccc(-c4cccs4)cc3)C3CC3)C2)c1)C(=O)NS(=O)(=O)c1cccc(O)c1` (stereo not drawn) [Compound 24, N-Cyclopropyl-1-(3-((1-((3-hydroxyphenyl)sulfonamido)-2-methyl-1-oxopropan-2-yl)oxy)phenyl)-N-(4-(thiophen-2-yl)benzyl) piperidine-3-carboxamide] the IC50 (β-catenin/BCL9 PPI; [2]) was at most 10 µM and the Ki (β-catenin/BCL9 PPI; [3]) was at most 10 µM.
